Experimental data: patent publication US20030104063A1, “Pharmaceutical compositions of dispersions of amorphous drugs mixed with polymers” (priority 2001, published 2003)
Blank lines part the entries; values can stand above or below the compound they belong to.

Assays:
Type in all cases: physicochemical
[1] = In vitro dissolution test of Drug 3 compositions in PBS (microcentrifuge, HPLC); conditions: for Drug 3 Concentration: PBS, 37° C.
Method: Example 6 was prepared by combining the dispersion with the concentration-enhancing polymer HPMCAS. 7.2 mg of the dispersion of Example 6 was added to microcentrifuge tubes. Tests were performed in duplicate. The tubes were placed in a 37° C. temperature-controlled chamber, and 1.8 mL PBS with 5.4 mg HPMCAS-MF was added. The tests were sampled as described in Example 1, and analyzed using HPLC.

[2] = In vitro dissolution test of Drug 2 compositions in PBS with sodium taurocholic acid/POPC (microcentrifuge, HPLC); conditions: for Drug 2 Concentration: PBS with sodium taurocholic acid/POPC, 37° C.
Method: Example 5 was prepared by combining the drug/matrix dispersion of Drug 2 and polyethylene glycol with the concentration-enhancing polymer HPMCAS. Example 5 was evaluated in an in vitro dissolution test using a microcentrifuge method. In this test, 18 mg of the dispersion was added to each of two microcentrifuge tubes. The tubes were placed in a 37° C. temperature-controlled chamber, and 1.8 mL PBS containing 7.3 mM sodium taurocholic acid and 1.4 mM 1-palmitoyl-2-oleyl-sn-glycero-3-phosphocholine, with 7.2 mg HPMCAS-MF, was added. The tests were sampled as described in Example 1, and analyzed using HPLC. Samples were collected at 4, 10, 20, 40, 90, and 1200 minutes.

[3] = In vitro dissolution test of Drug 4 compositions in PBS (microcentrifuge, HPLC); set-up: AUC: concentration or dose not given beside the values; conditions: for Drug 4 Concentration: PBS, 37° C.
Method: Tests were performed in duplicate. The tubes were placed in a 37° C. temperature-controlled chamber, and 1.8 mL PBS with 7.2 mg PVA was added. The tests were sampled as described in Example 1, and analyzed using HPLC. HPLC analysis was performed using a Zorbax SB C18 column, with a mobile phase of 35 vol. % water and 65 vol. % methanol. UV absorbance of Drug 4 was measured at 297 nm.

[4] = In vitro dissolution test of Drug 5 compositions in MFDS pH 6.5 (microcentrifuge, HPLC); conditions: for Drug 5 Concentration: MFDS pH 6.5, 37° C.
Method: Example 10 was prepared by combining the above amorphous dispersion with the concentration-enhancing polymer hydroxypropyl methylcellulose (HPMC E3 Prem LV, Dow Chemical Co.). 1.4 mg of the amorphous dispersion was added to microcentrifuge tubes. The tubes were placed in a 37° C. temperature-controlled chamber, and 1.8 mL PBS containing 0.5 wt % sodium taurocholic acid/1-palmitoyl-2-oleyl-sn-glycero-3-phosphocholine (MFDS, pH 6.5) and 0.4 mg HPMC was added. The tests were sampled as described in Example 1, and analyzed using HPLC.
For Control C12, in vitro dissolution tests were performed using the precedures described above except that 1.4 mg of the amorphous dispersion was tested without concentration-enhancing polymer (HPMC) in the test solution.

Drug 3 Concentration ([1]; 0 min): <1 µg/mL
Drug 3 Concentration ([1]; 4 min): <1 µg/mL
Drug 3 Concentration ([1]; 10 min): <1 µg/mL
Drug 3 Concentration ([1]; 20 min): <1 µg/mL
Drug 3 Concentration ([1]; 40 min): <1 µg/mL
Drug 3 Concentration ([1]; 90 min): <1 µg/mL
Drug 3 Concentration ([1]; 1200 min): <1 µg/mL
AUC ([1]; Drug 3, 0 min): <1 µg·min/mL
AUC ([1]; Drug 3, 4 min): <1 µg·min/mL
AUC ([1]; Drug 3, 10 min): <1 µg·min/mL
AUC ([1]; Drug 3, 20 min): <1 µg·min/mL
AUC ([1]; Drug 3, 40 min): <1 µg·min/mL
AUC ([1]; Drug 3, 90 min): <1 µg·min/mL
AUC ([1]; Drug 3, 1200 min): <1 µg·min/mL
AUC90 ([1]; Drug 3, after 90 minutes): <1 µg·min/mL
C1200 ([1]; Drug 3 concentration at 1200 minutes): <1 µg/mL
Cmax,90 ([1]; maximum concentration of Drug 3 during the first 90 minutes): <1000 ng/mL
SMILES: CCOC(=O)N1c2ccc(C(F)(F)F)cc2[C@@H](N(Cc2cc(C(F)(F)F)cc(C(F)(F)F)c2)C(=O)OC)C[C@H]1CC [Control C9, [2R,4S] 4-[(3,5-bis-trifluoromethyl-benzyl)-methoxycarbonyl-amino]-2-ethyl-6-trifluoromethyl-3,4-dihydro-2H-quinoline-1-carboxylic acid ethyl ester]

SMILES: CCC(CC)Oc1c(C)cnc(Oc2c(C)cc(C)cc2C)c1C [Control C7, 3,5-dimethyl-4-(3′-pentoxy)-2-(2′, 4′, 6′-trimethylphenoxy) pyridine]
Drug 2 Concentration ([2]; 0 min): 0 µg/mL
Drug 2 Concentration ([2]; 4 min): 16 µg/mL
Drug 2 Concentration ([2]; 10 min): 33 µg/mL
Drug 2 Concentration ([2]; 20 min): 32 µg/mL
Drug 2 Concentration ([2]; 40 min): 30 µg/mL
Drug 2 Concentration ([2]; 90 min): 39 µg/mL
Drug 2 Concentration ([2]; 1200 min): 37 µg/mL
AUC ([2]; Drug 2, 0 min): 0 µg·min/mL
AUC ([2]; Drug 2, 4 min): 0 µg·min/mL
AUC ([2]; Drug 2, 10 min): 200 µg·min/mL
AUC ([2]; Drug 2, 20 min): 500 µg·min/mL
AUC ([2]; Drug 2, 40 min): 1,100 min*μg/mL
AUC ([2]; Drug 2, 90 min): 2,800 min*μg/mL
AUC ([2]; Drug 2, 1200 min): 45,000 min*μg/mL
AUC90 ([2]; Drug 2, area under the concentration versus time curve after 90 minutes): 2800 µg·min/mL
C1200 ([2]; Drug 2 concentration at 1200 minutes): 37 µg/mL
Cmax,90 ([2]; maximum concentration of Drug 2 in solution during the first 90 minutes): 39000 ng/mL

Drug 4 Concentration ([3]; 0 min): 0 µg/mL
Drug 4 Concentration ([3]; 4 min): 360 µg/mL
Drug 4 Concentration ([3]; 10 min): 382 µg/mL
Drug 4 Concentration ([3]; 20 min): 372 µg/mL
Drug 4 Concentration ([3]; 40 min): 345 µg/mL
Drug 4 Concentration ([3]; 90 min): 262 µg/mL
Drug 4 Concentration ([3]; 1200 min): 154 µg/mL
AUC ([3]; Drug 4, 0 min): 0 µg·min/mL
AUC ([3]; Drug 4, 4 min): 700 µg·min/mL
AUC ([3]; Drug 4, 10 min): 2,900 min*μg/mL
AUC ([3]; Drug 4, 20 min): 6,700 min*μg/mL
AUC ([3]; Drug 4, 40 min): 13,900 min*μg/mL
AUC ([3]; Drug 4, 90 min): 29,100 min*μg/mL
AUC ([3]; Drug 4, 1200 min): 259,800 min*μg/mL
AUC90 ([3]; Drug 4, after 90 minutes): 29,100 min*μg/mL
C1200 ([3]; Drug 4 concentration at 1200 minutes): 154 µg/mL
Cmax,90 ([3]; maximum concentration of Drug 4 during the first 90 minutes): 382000 ng/mL
SMILES: O=C(N[C@@H](Cc1ccccc1)[C@@H](O)C(=O)N1C[C@@H](O)[C@@H](O)C1)c1cc2cc(Cl)ccc2[nH]1 [Control C11, 5-chloro-1H-indole-2-carboxylic acid [(1S)-benzyl-3-((3R, 4S)-dihydroxypyrrolidin-1-yl-)-(2R)-hydroxy-3-oxypropyl] amide]

Drug 5 Concentration ([4]; 0 min): 0 µg/mL
Drug 5 Concentration ([4]; 4 min): 16 µg/mL
Drug 5 Concentration ([4]; 10 min): 8 µg/mL
Drug 5 Concentration ([4]; 20 min): 5 µg/mL
Drug 5 Concentration ([4]; 40 min): 4 µg/mL
Drug 5 Concentration ([4]; 90 min): 4 µg/mL
Drug 5 Concentration ([4]; 1200 min): 4 µg/mL
AUC ([4]; Drug 5, 0 min): 0 µg·min/mL
AUC ([4]; Drug 5, 4 min): 0 µg·min/mL
AUC ([4]; Drug 5, 10 min): 100 µg·min/mL
AUC ([4]; Drug 5, 20 min): 200 µg·min/mL
AUC ([4]; Drug 5, 40 min): 300 µg·min/mL
AUC ([4]; Drug 5, 90 min): 500 µg·min/mL
AUC ([4]; Drug 5, 1200 min): 4,900 min*μg/mL
AUC90 ([4]; Drug 5, after 90 minutes): 500 µg·min/mL
C1200 ([4]; Drug 5 concentration at 1200 minutes): 4 µg/mL
Cmax,90 ([4]; maximum concentration of Drug 5 during the first 90 minutes): 16000 ng/mL
SMILES: CS(=O)(=O)O.O=C1Cc2cc(CCN3CCN(c4nsc5ccccc45)CC3)c(Cl)cc2N1 [Control C13]
